Like-named read-outs stand apart in the source and are kept apart here. One block for each compound: values may come before it.
Columns and labels:
[1] = target: AT2R (Homo sapiens (Human), UniProt P50052); experiment: Binding assay of compounds to AT2R (Tag-lite HTRF ligand binding kit); details: 1 hour incubation at room temperature
Description: The assay was performed in accordance with the instruction manual of Angiotensin AT2 Receptor Ligand Binding Assay Kit (#C1TT1AT2, Cisbio). First, a compound stock solution (10 mM) was diluted in a gradient at a 5× dilution ratio (including 10 concentrations, each with two replicates). 160 nL of compounds at different concentrations was added to a 384-well plate. 40 μL of 1×TLB was added to each well, and the mixture was shaken at room temperature for 15 minutes. 15 mL centrifuge tube added with 5 mL of 1×TLB was prepared in advance. The frozen labeled cells were thawed in a water bath at 37° C. (for 1 to 2 minutes), and the thawed cells were quickly transferred to the above 15 mL centrifuge tube. The mixture was mixed well and centrifuged at 1,000 g at room temperature for 5 minutes. The supernatant was removed, and the cells were resuspended by adding 2.7 mL 1×TLB. A new 384-well plate was taken, and 10 μL of mixed cells were added into the corresponding wells according to the assay design. 5 μL of 4× compound solution and 5 μL of 4× Tag-lite red fluorescent labeled ligand were added to each well. After incubation at room temperature for 1 hour, data were read using EnVision with an HTRF mode. The excitation light intensities at 665 nM and 615 nM in each well were read respectively, and the ratio was calculated (Ratio=A665nMIB615 nM). The IC50 value was calculated by means of GraphPad Prism8 software, where X represents logarithmic value of compound concentration; and Y represents ratio of A665 nM/B615 nM.

[2] = target: CYP1A2 (Homo sapiens (Human), UniProt P05177); experiment: CYP inhibition assay in mixed human liver microsomes; assay type: in vitro ADME
Description: (§1) The inhibitory effects of the compounds on seven enzymes, i.e., CYP1A2, CYP2C9, CYP2C19, CYP2D6, CYP3A4 (midazolam), CYP2B6, and CYP2C8, were evaluated at a concentration of 10 μM. Mixed human liver microsomes, which were previously stored in a −80° C. refrigerator before use, were taken out and thawed in a water bath at 37° C. before use, and placed on ice for further operation. 100 μL of microsome working solution was taken, and added with 2 μL of test product or positive inhibitor working solution. 2 μL of solvent was added to the solvent control. The mixture was pre-incubated in a water bath at 37° C. for 10 minutes. After preincubation, 98 μL of NADPH regeneration solution was added to all samples to initiate the reaction. Then, the samples were put back into the water bath and incubated for a period of time. The reaction was quenched with 200 μL of stop solution. The plate was centrifuged at 3,220 g for 10 minutes, 100 μL of supernatant was transferred, and 100 μL of water was added and mixed well to the assay plate for LC/MS/MS analysis.

[3] = target: CYP2B6 (Homo sapiens (Human), UniProt P20813); experiment: as above; assay type: in vitro ADME; details: mixed (pooled) human liver microsomes, read-out: Inhibition rate % CYP2B6
Description: as §1

[4] = target: CYP2C19 (Homo sapiens (Human), UniProt P33261); experiment: as above; assay type: in vitro ADME; details: mixed (pooled) human liver microsomes, read-out: Inhibition rate % CYP2C19
Description: as §1

[5] = target: CYP2C8 (Homo sapiens (Human), UniProt P10632); experiment: as above; assay type: in vitro ADME; details: mixed (pooled) human liver microsomes, read-out: Inhibition rate % CYP2C8
Description: as §1

[6] = target: CYP2C9 (Homo sapiens (Human), UniProt P11712); experiment: as above; assay type: in vitro ADME; details: mixed (pooled) human liver microsomes, read-out: Inhibition rate % CYP2C9
Description: as §1

[7] = target: CYP2D6 (Homo sapiens (Human), UniProt P10635); experiment: as above; assay type: in vitro ADME; details: mixed (pooled) human liver microsomes, read-out: Inhibition rate % CYP2D6
Description: as §1

[8] = target: CYP3A4 (Homo sapiens (Human), UniProt P08684); experiment: as above; assay type: in vitro ADME; details: mixed (pooled) human liver microsomes, probe midazolam, read-out: Inhibition rate % CYP3A4 (midazolam)
Description: as §1

[9] = Free plasma protein binding (PPB) assay, equilibrium dialysis; assay type: in vitro ADME; details: dialysis 6 hours at 37° C.
Description: The dried dialysis membrane was soaked in ultrapure water for 1 hour, then soaked in 20% ethanol for 20 minutes, and then rinsed with ultrapure water for 2 to 3 times. Finally, the dried dialysis membrane was soaked in ultrapure water for 20 minutes for later use. The frozen plasma was thawed in a water bath at 37° C. for about 20 minutes. pH value of the plasma was measured after thawing was complete, and was adjusted to 7.4 with 1% phosphoric acid solution or 0.1M sodium hydroxide solution. […] The pretreated dialysis membrane was assembled into the dialysis plate according to product instructions, and 100 μL of receiving solution (100 mM phosphate buffer solution plus 0.002% Tween 80) was added to one side of the permeable membrane in each dialysis well. 20 μL of each of the final solution of the test compound and the final solution of the control compound were taken in a 96-well sample plate, two duplicate samples were made, and T0 sample was obtained, which was stored in a −20° C. refrigerator. Another 100 μL of each of the above-mentioned final solutions were taken to the other side of the membrane in the dialysis device, two duplicate samples were made, and incubated at 37° C. with constant shaking for 6 hours. After 6 hours of incubation, 20 μL of each of the dialyzed receiving solution and the administered plasma were taken, two duplicate samples were made, and sample A and sample B were obtained. Corresponding blank plasma or receiving solution of corresponding volume were added to sample B and sample A, respectively, allowing the volume ratio of plasma to buffer in each sample well to be 1:1. 300 μL of sample-containing internal standard acetonitrile solution was added to all the sample wells. The mixture was mixed well, and centrifuged at 5,500×g for 10 minutes. 150 μL of corresponding ultrapure water was added to the corresponding sample wells of the 96-well sample plate. 150 μL of the supernatant was taken into the sample wells, and mixed well. Then, LC/MS/MS analysis was performed. The calculation formula of fu is: […]
where: CR: peak area ratio measured in the receiving chamber well CD: peak area ratio measured in the supply chamber well.

[10] = Liver microsome stability assay; assay type: in vitro ADME; details: Human liver microsomes, NADPH, 37° C.; read-out: T1/2 (min) Human
Description: The human liver microsome stability assay was performed by co-incubating the compound with human liver microsomes in vitro. The test compounds were first prepared as 10 mM stock solutions in DMSO solvent, and then diluted to 0.5 mM with acetonitrile. Human liver microsomes (Corning) were diluted with PBS to prepare a microsome/buffer solution, and this solution was used to dilute 0.5 mM of the compound to prepare a working solution. In the working solution, a concentration of the compound was 1.5 μM and a concentration of the human liver microsome was 0.75 mg/ml. A deep-well plate was taken, 30 μL of working solution was added to each well of the plate, and then 15 μL of pre-heated NADPH solution (6 mM) was added to start the reaction. The mixture was incubated at 37° C. 135 μL of acetonitrile was added to the corresponding wells to stop the reaction at 0 minute, 5 minutes, 15 minutes, 30 minute, and 45 minutes of incubation. Subsequent to the stop of the reaction by means of acetonitrile at the last time point of 45 minute, the plate was vortexed for 10 minutes (600 rpm/min) and then centrifuged for 15 minutes. […] The peak area ratios of the compound at 5 minutes, 15 minutes, 30 minutes, and 45 minutes were compared with the peak area ratio at 0 minute, and the remaining percentage of the compound at each time point was calculated. T1/2 was calculated using Graphpad8 software.

[11] = Liver microsome stability assay; assay type: in vitro ADME; details: Rat liver microsomes; read-out: T1/2 (min) Rat
[12] = Liver microsome stability assay; assay type: in vitro ADME; details: Mouse liver microsomes; read-out: T1/2 (min) Mouse
[13] = Liver microsome stability assay; assay type: in vitro ADME; details: dog; Canine liver microsomes; read-out: T1/2 (min) Canine
[14] = pH 7.4, Mouse plasma, read-out: fu % Mouse
[15] = dog, pH 7.4, Canine plasma, read-out: fu % Canine
[16] = pH 7.4, Rat plasma, read-out: fu % Rat
[17] = pH 7.4, Human plasma, read-out: fu % Human

AT2R, sequence (P50052 whole entry): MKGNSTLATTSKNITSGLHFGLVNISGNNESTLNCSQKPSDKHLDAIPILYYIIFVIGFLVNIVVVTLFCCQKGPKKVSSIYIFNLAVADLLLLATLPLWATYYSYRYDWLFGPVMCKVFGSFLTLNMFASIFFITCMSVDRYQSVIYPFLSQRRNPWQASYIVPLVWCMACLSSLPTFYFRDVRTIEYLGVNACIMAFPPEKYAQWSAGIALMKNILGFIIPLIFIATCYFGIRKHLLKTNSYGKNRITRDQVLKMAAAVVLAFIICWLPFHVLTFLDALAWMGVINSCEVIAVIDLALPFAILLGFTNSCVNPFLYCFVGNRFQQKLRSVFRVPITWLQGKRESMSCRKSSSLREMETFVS
CYP2C9, sequence (P11712 whole entry): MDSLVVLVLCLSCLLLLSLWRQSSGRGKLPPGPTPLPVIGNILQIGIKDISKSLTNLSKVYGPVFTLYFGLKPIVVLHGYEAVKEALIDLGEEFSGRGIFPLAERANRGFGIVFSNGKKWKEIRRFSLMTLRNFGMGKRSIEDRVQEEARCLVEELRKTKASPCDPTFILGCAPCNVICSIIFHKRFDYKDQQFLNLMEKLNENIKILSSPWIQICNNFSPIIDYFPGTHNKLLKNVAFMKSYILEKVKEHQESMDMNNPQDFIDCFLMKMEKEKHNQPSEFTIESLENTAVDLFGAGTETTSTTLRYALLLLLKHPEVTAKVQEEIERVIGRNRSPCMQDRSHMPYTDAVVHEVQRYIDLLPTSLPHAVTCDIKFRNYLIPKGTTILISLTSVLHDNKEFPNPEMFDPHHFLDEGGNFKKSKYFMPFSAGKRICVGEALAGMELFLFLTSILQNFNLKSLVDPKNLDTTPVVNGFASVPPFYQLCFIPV
CYP2D6, sequence (P10635 whole entry): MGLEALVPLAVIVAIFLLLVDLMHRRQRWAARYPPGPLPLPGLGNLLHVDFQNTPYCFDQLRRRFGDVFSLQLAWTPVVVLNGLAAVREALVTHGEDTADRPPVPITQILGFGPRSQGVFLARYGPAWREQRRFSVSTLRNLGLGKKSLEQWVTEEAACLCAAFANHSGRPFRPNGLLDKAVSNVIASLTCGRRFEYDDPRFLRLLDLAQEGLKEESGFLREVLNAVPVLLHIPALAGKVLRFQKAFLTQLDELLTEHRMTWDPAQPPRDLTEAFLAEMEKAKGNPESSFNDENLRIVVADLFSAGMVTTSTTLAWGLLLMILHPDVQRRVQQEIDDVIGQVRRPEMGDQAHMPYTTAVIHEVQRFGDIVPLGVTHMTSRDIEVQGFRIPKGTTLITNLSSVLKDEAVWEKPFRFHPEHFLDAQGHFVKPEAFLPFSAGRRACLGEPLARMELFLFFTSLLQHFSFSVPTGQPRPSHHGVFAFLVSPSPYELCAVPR
CYP3A4, sequence (P08684 whole entry): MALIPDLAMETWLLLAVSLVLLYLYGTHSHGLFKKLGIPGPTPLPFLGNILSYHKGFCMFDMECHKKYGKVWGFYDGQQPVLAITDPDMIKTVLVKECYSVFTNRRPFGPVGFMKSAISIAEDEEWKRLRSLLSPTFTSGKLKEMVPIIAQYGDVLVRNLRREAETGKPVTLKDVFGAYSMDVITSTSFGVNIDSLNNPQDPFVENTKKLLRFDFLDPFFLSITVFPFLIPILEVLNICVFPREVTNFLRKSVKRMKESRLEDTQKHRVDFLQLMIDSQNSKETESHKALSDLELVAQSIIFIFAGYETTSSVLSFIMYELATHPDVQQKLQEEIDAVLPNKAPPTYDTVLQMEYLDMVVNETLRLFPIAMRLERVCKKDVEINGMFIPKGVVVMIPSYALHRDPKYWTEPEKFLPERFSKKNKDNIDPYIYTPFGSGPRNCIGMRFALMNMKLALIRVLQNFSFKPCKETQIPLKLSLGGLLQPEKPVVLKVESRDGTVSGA
CYP1A2, sequence (P05177 whole entry): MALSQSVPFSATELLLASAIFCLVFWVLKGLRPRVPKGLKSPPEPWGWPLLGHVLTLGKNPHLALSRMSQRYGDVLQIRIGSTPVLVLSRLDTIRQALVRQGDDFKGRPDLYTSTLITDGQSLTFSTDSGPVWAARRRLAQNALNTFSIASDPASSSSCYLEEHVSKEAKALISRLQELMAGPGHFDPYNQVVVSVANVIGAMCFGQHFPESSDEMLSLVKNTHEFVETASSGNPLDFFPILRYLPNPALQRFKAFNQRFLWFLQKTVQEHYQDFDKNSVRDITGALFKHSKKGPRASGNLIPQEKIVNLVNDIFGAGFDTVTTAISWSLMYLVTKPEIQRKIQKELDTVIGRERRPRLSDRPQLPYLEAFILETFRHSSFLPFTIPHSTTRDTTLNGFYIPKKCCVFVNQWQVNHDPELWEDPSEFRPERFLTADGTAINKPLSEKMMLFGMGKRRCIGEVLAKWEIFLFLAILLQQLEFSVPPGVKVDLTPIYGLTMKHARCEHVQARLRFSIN
CYP2B6, sequence (P20813 whole entry): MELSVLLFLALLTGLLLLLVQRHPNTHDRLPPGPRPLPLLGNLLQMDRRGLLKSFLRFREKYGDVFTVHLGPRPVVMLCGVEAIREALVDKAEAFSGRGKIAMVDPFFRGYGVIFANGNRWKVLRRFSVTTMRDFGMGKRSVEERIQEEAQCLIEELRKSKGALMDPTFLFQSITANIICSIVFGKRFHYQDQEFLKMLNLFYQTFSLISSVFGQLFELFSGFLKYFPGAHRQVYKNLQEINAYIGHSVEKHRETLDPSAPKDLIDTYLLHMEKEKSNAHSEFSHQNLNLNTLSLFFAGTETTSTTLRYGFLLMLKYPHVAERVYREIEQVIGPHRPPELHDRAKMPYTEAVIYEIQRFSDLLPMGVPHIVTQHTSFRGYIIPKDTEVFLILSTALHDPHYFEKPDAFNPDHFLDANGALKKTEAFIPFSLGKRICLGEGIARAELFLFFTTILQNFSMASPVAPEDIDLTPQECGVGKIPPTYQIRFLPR
CYP2C19, sequence (P33261 whole entry): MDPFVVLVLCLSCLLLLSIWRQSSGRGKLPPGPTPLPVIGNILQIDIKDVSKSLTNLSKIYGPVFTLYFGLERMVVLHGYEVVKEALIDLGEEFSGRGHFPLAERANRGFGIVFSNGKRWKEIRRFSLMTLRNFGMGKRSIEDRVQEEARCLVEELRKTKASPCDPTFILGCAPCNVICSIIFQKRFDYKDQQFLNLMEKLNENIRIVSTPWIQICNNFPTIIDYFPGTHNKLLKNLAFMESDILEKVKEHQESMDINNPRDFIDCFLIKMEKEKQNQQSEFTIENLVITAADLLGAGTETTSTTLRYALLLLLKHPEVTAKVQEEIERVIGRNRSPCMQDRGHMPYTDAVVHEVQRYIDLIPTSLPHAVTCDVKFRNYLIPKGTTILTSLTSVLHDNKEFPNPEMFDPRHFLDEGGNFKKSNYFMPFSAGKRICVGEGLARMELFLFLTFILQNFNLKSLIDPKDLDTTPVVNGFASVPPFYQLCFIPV
CYP2C8, sequence (P10632 whole entry): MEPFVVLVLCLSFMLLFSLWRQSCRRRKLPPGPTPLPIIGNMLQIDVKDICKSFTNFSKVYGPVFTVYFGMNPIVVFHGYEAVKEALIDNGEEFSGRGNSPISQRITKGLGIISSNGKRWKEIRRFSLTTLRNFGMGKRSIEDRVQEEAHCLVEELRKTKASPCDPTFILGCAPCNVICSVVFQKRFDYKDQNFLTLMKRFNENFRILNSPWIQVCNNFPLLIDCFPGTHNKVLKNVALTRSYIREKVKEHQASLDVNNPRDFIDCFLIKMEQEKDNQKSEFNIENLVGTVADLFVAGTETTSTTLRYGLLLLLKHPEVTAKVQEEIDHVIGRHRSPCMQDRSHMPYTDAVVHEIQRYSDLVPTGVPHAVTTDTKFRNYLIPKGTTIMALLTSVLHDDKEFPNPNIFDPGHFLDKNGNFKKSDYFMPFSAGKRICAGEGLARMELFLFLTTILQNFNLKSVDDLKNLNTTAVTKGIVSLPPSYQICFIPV

Structure (SMILES): CCc1nccn1Cc1ccc(-c2cc(CC(C)C)sc2S(=O)(=O)NC(=O)OC)cc1C#N [Compound I-14, Methyl ((3-(3-cyano-4-((2-ethyl-1H-imidazol-1-yl)methyl)phenyl)-5-isobutylthiophen-2-yl)sulfonyl)carbamate]
IC50 [1]: 1.68 nM
inhibition at 10 µM [2]: 0%
inhibition at 10 µM [3]: 16.9%
inhibition at 10 µM [4]: 21.7%
inhibition at 10 µM [5]: 50.6%
inhibition at 10 µM [6]: 32.8%
inhibition at 10 µM [7]: 11.4%
inhibition at 10 µM [8]: 0%
fraction unbound at 6 h, 1 μM [9, 14]: 0.0427

Structure (SMILES): COC(=O)NS(=O)(=O)c1sc(CC(C)C)cc1-c1ccc(Cn2ccnc2C(C)(C)C)c(C#N)c1 [Compound I-13, Methyl ((3-(4-((2-(tert-butyl)-1H-imidazol-1-yl)methyl)-3-cyanophenyl)-5-isobutylthiophen-2-yl)sulfonyl)carbamate]
IC50 [1]: 1.72 nM
inhibition at 10 µM [2]: 0.54%
inhibition at 10 µM [3]: 18.3%
inhibition at 10 µM [4]: 11.7%
inhibition at 10 µM [5]: 82.7%
inhibition at 10 µM [6]: 20.2%
inhibition at 10 µM [7]: 6.5%
inhibition at 10 µM [8]: 0%
fraction unbound at 6 h, 1 μM [9, 15]: 0.0116
fraction unbound at 6 h, 1 μM [9, 14]: 0.0211
fraction unbound at 6 h, 1 μM [9, 16]: 0.0043

Structure (SMILES): COC(=O)NS(=O)(=O)c1sc(CC(C)C)c(C)c1-c1ccc(Cn2ccnc2C)cc1 [Compound I-16, Methyl (5-isobutyl-4-methyl-3-(4-((2-methyl-1H-imidazol-1-yl)methyl)phenyl)thiophen-2-yl)sulfonylcarbamate]
IC50 [1]: 2.68 nM
inhibition at 10 µM [2]: 25%
inhibition at 10 µM [3]: 11.1%
inhibition at 10 µM [4]: 35.3%
inhibition at 10 µM [5]: 33.6%
inhibition at 10 µM [6]: 46.8%
inhibition at 10 µM [7]: 9.54%
inhibition at 10 µM [8]: 6.78%
fraction unbound at 6 h, 1 μM [9, 15]: 0.0349
fraction unbound at 6 h, 1 μM [9, 17]: 0.0126
fraction unbound at 6 h, 1 μM [9, 16]: 0.0109
half-life at 1 μM [10]: 239 min
half-life at 1 μM [11]: 83.5 min
half-life at 1 μM [12]: 1730 min
half-life at 1 μM [13]: 578 min

Now those with a lower IC50 [1], led by results:

IC50 [1]: 1.51 nM
inhibition at 10 µM [2]: 0%
inhibition at 10 µM [3]: 27.6%
inhibition at 10 µM [4]: 11%
inhibition at 10 µM [5]: 12.6%
inhibition at 10 µM [6]: 28.3%
inhibition at 10 µM [7]: 1.97%
inhibition at 10 µM [8]: 13.4%
fraction unbound at 6 h, 1 μM [9, 15]: 0.0185
fraction unbound at 6 h, 1 μM [9, 17]: 0.0039
fraction unbound at 6 h, 1 μM [9, 14]: 0.0121
fraction unbound at 6 h, 1 μM [9, 16]: 0.0097
Structure (SMILES): COC(=O)NS(=O)(=O)c1sc(CC(C)C)cc1-c1ccc(Cn2ccnc2C)cc1C [Compound I-11, Methyl (5-isobutyl-3-(2-methyl-4-((2-methyl-1H-imidazol-1-yl)methyl)phenyl)thiophen-2-yl)sulfonylcarbamate]

IC50 [1]: 1.35 nM
inhibition at 10 µM [2]: 4.18%
inhibition at 10 µM [3]: 31.6%
inhibition at 10 µM [4]: 30.2%
inhibition at 10 µM [5]: 39.5%
inhibition at 10 µM [6]: 45.8%
inhibition at 10 µM [7]: 10.4%
inhibition at 10 µM [8]: 21.1%
Structure (SMILES): CCCCOC(=O)NS(=O)(=O)c1sc(CC(C)C)cc1-c1ccc(Cn2ccnc2C)c(C#N)c1 [Compound I-12, Butyl ((3-(3-cyano-4-((2-methyl-1H-imidazol-1-yl)methyl)phenyl)-5-isobutylthiophen-2-yl)sulfonyl)carbamate]

Reference: patent publication US20250214978A1, “AT2R AGONIST” (WUHAN HUMANWELL INNOVATIVE DRUG RESEARCH AND DEVELOPMENT …, priority 2022, published 2025)
